Measured values taken from patent US11504425B2, “Amphiphilic oligodeoxynucleotide conjugates as adjuvant enhancers” (WAYNE STATE UNIVERSITY, priority 2019, dated 2022).

What was measured:
human TLR8 (hTLR8) = molecular target: T1, human TLR8 (hTLR8) (Homo sapiens, UniProt Q9NR97); experiment: HEK hTLR8 reporter cells NF-κB/SEAP; type: cell-based; details: 1 μg/ml or indicated concentrations TLR8-506 + 1 μM ODN, 24 h
T1 construct: host or cells: HEK-Blue-hTLR8 (HEK293)
T1 sequence (Q9NR97 27-1041): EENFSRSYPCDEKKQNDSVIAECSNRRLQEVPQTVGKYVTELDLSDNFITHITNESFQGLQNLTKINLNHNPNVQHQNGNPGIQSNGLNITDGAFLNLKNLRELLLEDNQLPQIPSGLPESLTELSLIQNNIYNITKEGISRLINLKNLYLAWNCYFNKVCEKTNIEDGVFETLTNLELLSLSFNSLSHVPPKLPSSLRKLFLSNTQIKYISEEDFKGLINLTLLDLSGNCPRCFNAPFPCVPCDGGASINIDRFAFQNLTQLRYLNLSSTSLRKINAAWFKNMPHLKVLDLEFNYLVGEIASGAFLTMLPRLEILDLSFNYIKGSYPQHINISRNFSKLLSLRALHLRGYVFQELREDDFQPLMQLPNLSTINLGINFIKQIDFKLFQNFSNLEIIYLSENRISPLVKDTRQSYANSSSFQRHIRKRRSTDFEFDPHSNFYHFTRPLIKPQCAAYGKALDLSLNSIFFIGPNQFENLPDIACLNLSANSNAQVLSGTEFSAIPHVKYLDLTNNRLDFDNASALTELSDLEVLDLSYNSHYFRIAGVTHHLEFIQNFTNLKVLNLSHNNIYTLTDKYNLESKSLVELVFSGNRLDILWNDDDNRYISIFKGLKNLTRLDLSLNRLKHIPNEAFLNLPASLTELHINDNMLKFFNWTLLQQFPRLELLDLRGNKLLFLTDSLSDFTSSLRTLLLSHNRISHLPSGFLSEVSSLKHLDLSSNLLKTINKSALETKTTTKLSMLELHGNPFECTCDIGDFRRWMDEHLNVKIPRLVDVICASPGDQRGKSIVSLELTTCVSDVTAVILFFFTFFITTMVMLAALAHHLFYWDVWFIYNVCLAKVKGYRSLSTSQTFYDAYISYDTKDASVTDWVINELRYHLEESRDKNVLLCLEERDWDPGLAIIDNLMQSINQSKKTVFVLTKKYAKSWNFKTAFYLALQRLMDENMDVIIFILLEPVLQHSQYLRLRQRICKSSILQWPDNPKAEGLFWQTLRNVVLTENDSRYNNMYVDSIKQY
Procedure: HEK-Blue™-mTLR7, mTLR8, hTLR7, hTLR8, and RAW-Blue™ cells were purchased from InvivoGen and were used to evaluate bioactivities of lipo ODNs and TLR 7/8 ligands in vitro. All these cell lines were cultured with DMEM supplemented with 10% FBS, 1% P/S and 100 μg/mL Normocin at 37° C. with 5% CO2. […] After incubating for 24 h, SEAP levels were quantified by developing supernatants with QuantiBlue™ substrate for 1 h and reading absorption at 620 nm, following manufacturer's instructions.
HEK293 cells transfected with human TLR7 or 8 were used. The cells were stimulated with IMQ in the presence of several inhibitory oligonucleotides reported in the literature. […] In contrast, all the unmodified ODNs maintained their inhibitory function, reducing the NF-κB secretion to basal levels (FIG. 8A). We then plotted the IMQ dose response curve in human TLR-7 transfected HEK293 cells.

Raw-Blue reporter cells = experiment: Cellular uptake and confocal imaging in Raw-Blue cells; type: cell-based, murine
Procedure: DC 2.4 cells were cultured with RPMI-1640 supplemented with 10% FBS and 1% P/S; Raw-Blue cells were cultured as previously described. […] After incubation, cells were washed twice with 1×PBS by centrifuge at 800×g for 5 min prior to flow cytometry quantification. To visualize in vitro cellular uptake, DC 2.4 cells or Raw-Blue cells were cultured and incubated under the same experimental conditions and were subjected to confocal imaging by Zeiss LSM 510 microscope. […] Inhibitors: 5 μg/mL Filipin; 50 μM EIPA; 300 mM sucrose were tested.

human PBMC = experiment: Cytokine secretion by human PBMC (ELISA); type: cell-based; details: 24 h
Procedure: Whole blood was obtained from the Red Cross, where healthy volunteers had provided informed consent to donate blood. Peripheral blood mononuclear cells (PBMC) were isolated by density gradient centrifugation using Histopaque-1077 (Sigma-Aldrich). The mononuclear cells were washed twice with cold PBS (1×) and resuspended in completed RPMI-1640 supplemented with 10% FBS and 1% penicillin/streptomycin. PBMC were seeded at 2×10^6/ml in 200 μL in a 96-well plate.
Supernatants collected from splenocytes suspension or human PBMC suspension after incubation were separately analyzed for IL-6, IL-12p40, TNF-α, and IFN-α by ELISA following manufacturer's instructions.

## 5′-TTTTTTTTTTTTTTTTTTTT-3′ [T20]
Human TLR8 (hTLR8)
  TLR8-506 stimulation of hTLR8 cells in the presence of the ODN: enhanced the stimulation of TLR8-506
Raw-Blue reporter cells; 1 μM FAM-labeled ODN, FBS-supplemented and FBS-free, LysoTracker Red
  colocalization with lysosomes: colocalized with lysosomes regardless of the presence of FBS
Raw-Blue reporter cells; 2 μM FITC-IMDQ + 1 μM ODN
  effect on cellular uptake of FITC-labeled IMDQ: neither T20 nor lipo T20 increased cellular uptake
Human PBMC; CL264 + ODN
  IFN-α production: completely abrogated IFN-α production
Human PBMC; TLR8-506 + ODN
  IL-12 production: able to augment the IL-12 production
